# In patent US8772274B1, “Anti-cancer compositions and methods” (The Penn State Research Foundation, priority 2008, dated 2014):
# Where a name gives a salt, the structure may show the parent alone.
# How the values were obtained:
# [1] = tested on: normal human fibroblast cells (FF2441); test: MTS cell viability assay, normal fibroblasts; format: cell-based; settings: Homo sapiens, FF2441, read-out: Inhibition of growth IC50, Fibroblast cells (FF2441) (Table II)
# Procedure: 5×10^3 cells per well in 100 μl DMEM-10% FBS are grown in a 96-well plate for 36 or 72 hours, respectively for melanoma (UACC 903, 1205 Lu and WM115) and human fibroblast (FF2441) cell lines and treated with either PBS vehicle or increasing concentrations (3.5-21 μM) of PBIT, PBISe, PEIT or PEISe for 24 hours. Cellular viability compared to control treated cells is measured using the MTS assay (Promega, Madison, Wis.). IC50 (μM) values for each compound in respective cell lines is determined from three independent experiments using GraphPad Prism version 4.01 (GraphPad, San Diego, Calif.), bars, SEM.
# Viability of colon adenocarcinoma cells (Caco-2, HT 29, HCT 116, SW 480) and normal fibroblast cells (FF2441) treated with PBIT (1), PBISe (2), PEIT (3) or PEISe (4) is compared. The IC50 value is evaluated by treating with increasing concentrations of PBIT, PEIT, PEISe (10-100 μM) or PBISe (1.6-50 μM) for 24-72 hours and the number of viable cell are quantified using MTS (Promega, Wis.).
# [2] = tested on: HT-1080 fibrosarcoma cells; test: MTS cell viability assay, HT-1080; format: cell-based, human
# Procedure: (§1) Growth inhibitory effects on cultured cells from human vertical growth phase (VGP) melanoma cell line WM115, Lung adenocarcinoma (A549), fibrosarcoma (HT-1080), prostate adenocarcinoma (PC-3), ovarian carcinoma (OVCAR-3), and breast adenocarcinoma (MDA-MB-231) are plated in 96 well plates at a density of 5×10^3 cells/well in 100 μl media. […] Dose response curves for each compound are generated and the IC50 values (μM) determined using GraphPad Prism software. Each experiment is replicated at least 3 times and the average IC50 (μM) values with standard error represented.
# [3] = tested on: PC-3 prostate adenocarcinoma cells; test: MTS cell viability assay, PC-3; format: cell-based, human
# Procedure: as §1
# [4] = tested on: MDA-MB-231 breast adenocarcinoma cells; test: MTS cell viability assay, MDA-MB-231; format: cell-based, human
# Procedure: as §1
# UACC 903 melanoma cells = test: Cellular proliferation, BrdU ELISA; format: cell-based; settings: 2 μM, 24 hours
# Procedure: Cellular proliferation and apoptosis rates are measured by seeding 5×10^3 cells in 96-well plates, followed by treatment for 24 hours with PBISe or PBIT (0.5-10.5 μM). Proliferation and apoptosis rates are measured using a BrdU ELISA kit (Roche Applied Sciences, Indianapolis, Ind.) and Apo-ONE Homogenous caspase-3/7 Assay kit (Promega, Madison, Wis.), respectively, (Madhunapantula S V, et al., Cancer Res 2007; 67:3626-36).
# [5] = tested on: PI3 kinase/Akt3 and MAP kinase signaling in UACC 903 cells; test: Western blot analysis of melanoma cell lysates; format: cell-based
# Procedure: Melanoma cell line UACC 903 cells (1×10^6) are treated with increasing concentrations (7-21 μM) of PBIT and PBISe for 24 hours and cell lysates examined by Western blot analysis Cell lysates are harvested by addition of lysis buffer containing 50 mM HEPES (pH 7.5), 150 mM NaCl, 10 mM EDTA, 10% glycerol, 1% Triton X-100, 1 mM sodium orthovanadate, 0.1 mM sodium molybdate, 1 mM phenylmethylsulfonyl fluoride, 20 μg/ml aprotinin, and 5 μg/ml leupeptin. Whole cell lysates are centrifuged (≧10,000×g) for 10 minutes at 4° C. to remove cell debris. Protein concentrations are quantitated using the BCA assay (Pierce, Rockford, Ill.), and 30 μg of lysate loaded per lane onto NuPAGE Gels (Life Technologies, Carlsbad, Calif.). Following electrophoresis, samples are transferred to polyvinylidene difluoride membrane (Pall Corporation, Pensacola, Fla.). Blots are probed with antibodies to PRAS40 and phosphorylated PRAS40 (Thr246) (Invitrogen, Carlsbad, Calif.); antibodies to iNOS, cyclin D1, p27, p21, Erk2, α-enolase and secondary antibodies conjugated with horseradish peroxidase from Santa Cruz Biotechnology (Santa Cruz, Calif.); and antibodies to Akt3, phosphorylated-Akt (Ser473), phosphorylated-Erk 1/2 (Thr202/Tyr204), caspase-3 and cleaved PARP from Cell Signaling Technology (Danvers, Mass.). Immunoblots are developed using ECL (Pierce, Rockford, Ill.).
# [6] = Systemic toxicity assessment, i.p. treatment; format: in vivo; settings: nude mice, 3 weeks
# Procedure: Tumor kinetics are measured by subcutaneous injection of 5×10^6 UACC 903 or 2.5×10^61205 Lu cells in 0.2 ml of DMEM containing 10% FBS above left and right rib cages of 4-6 week old female nude mice (Harlan Sprague Dawley, Indianapolis, Ind.). Six days later, a fully vascularized tumor has developed and mice are randomly placed in control DMSO or experimental (PBIT or PBISe) groups (n=5 animals; 10 tumors total) followed by i.p. treatment with PBIT ([…]) or PBISe ([…]; equivalent to 2.5 ppm selenium per 20 g mouse) on Monday, Wednesday and Friday for 3 weeks. Dimensions of developing tumors and body weight are measured.
# Systemic toxicity of PBISe in animals is evaluated in nude mice. Mice are exposed to PBISe or PBIT ([…]), or vehicle DMSO, 3 times per week and animals weighed to ascertain possible toxicity. 4-6 week old female nude mice (Harlan Sprague Dawley, Indianapolis, Ind.) are injected i. p. with either control DMSO vehicle, PBIT or PBISe (0.315 μmoles each) for 3 weeks by following the regime used for tumorigenicity. Blood is then collected from each animal in plasma separator tubes with lithium heparin (BD Microtainer, BD, Franklin Lakes, N.J.) following cardiac puncture and analyzed for SGOT, SGPT, alkaline phosphatase, glucose and creatinine to ascertain liver, heart, kidney and pancreas related toxicity. For morphological examination of blood cells, whole blood is collected in microtainer tubes containing K2EDTA (BD Microtainer, BD, Franklin Lakes, N.J.) and RBC, WBC, lymphocytes, monocytes, eosinophils, platelets, total hemoglobin and hematocrit percentage analyzed. Blood is also microscopically examined for segregates, polychromatin bodies, and smudge cells. A portion of vital organs—liver, heart, kidney, intestine, pancreas and adrenal—from each animal is formalin fixed and paraffin-embedded to examine for toxicity-associated changes in cell morphology and organization following H&E staining. […] Thus, PBISe treatment has negligible associated systemic toxicity at the concentrations examined.
# [7] = tested on: WM35-GFP and UACC 903-GFP melanoma tumors in reconstructed skin; test: Topical treatment of skin reconstructs containing melanoma cells; format: cell-based, human; settings: 8 days
# Procedure: Generation of skin containing melanocytic lesions is briefly described. […] Mixture is then aliquoted into 6 or 12 well plates and incubated at 37° C. for 3 hours. […] One milliliter of cell suspension is added to each well on top of the dermal layer. Following two days growth, reconstructed skin is transferred onto wire grids and fed via diffusion from E-media below the platforms.
# Skin reconstructs containing melanoma cells are treated topically with increasing concentrations (5, 10, 15 and 20 μM in 200 μL PBS) of PBIT or PBISe. Eight days later control vehicle PBS treated, PBIT and PBISe exposed skins are fixed in paraformaldehyde and stored in 0.5% EDTA.
# Beginning on day 8 of culture, the reconstructed skins containing melanoma tumors are treated with increasing concentrations of PBISe (5, 10, 15 and 20 μM) or PBIT (15 and 20 μM) in 200 μL of vehicle PBS for 8 days and the size of developing tumors, in terms of area occupied by GFP, is measured using fluorescence microscopy.
# UACC 903 melanoma tumors = test: Topical application on melanoma tumor growth in vivo; settings: topical daily 0.0945 umoles (1.5 ppm selenium, 5.12 mg/kg); day 17 through day 29
# Procedure: UACC 903 melanoma cells (0.25×10^5/site) are subcutaneously injected into left and right flanks of 4-6 weeks old female nude mice (n=4) and 24 h later PBIT, PBISe (0.0945 umoles, 1.5 ppm selenium equivalent to 5.12 mg/kg body weight) or vehicle control (acetone) is applied topically for 29 days. Sizes of developing tumors are measured and average sizes±S.E.M. (in mm^3) plotted. A minimum of 5 mice per group is used for the topical treatment.
# [8] = UACC 903, 7-21 μM, 24 hours, compared to PBIT
smiles,measurement,setting,value
"N=C(N)[Se]CCc1ccc(CC[Se]C(=N)N)cc1 [PBISe, s,s′-1,4-phenylene-bis(1,2-ethanediyl)bis-isoselenourea dihydrobromide]",IC50,[1],17.1 ± 0.59 µM
same,IC50,"[2]; Homo sapiens, HT-1080, 24 h, read-out: Inhibition Cancer Cells IC50, HT-1080 (Table III)",3.2 ± 0.61 µM
same,"Fold increase in efficacy (PBIT/PBISe), HT-1080","[2]; ratio of IC50 PBIT/PBISe, HT-1080",>31.2 fold
same,IC50,"[3]; Homo sapiens, 24 h, read-out: Inhibition Cancer Cells IC50, PC-3 (Table III)",6.6 ± 0.95 µM
same,"Fold increase in efficacy (PBIT/PBISe), PC-3","[3]; ratio of IC50 PBIT/PBISe, PC-3",>15.2 fold
same,IC50,"[4]; Homo sapiens, MDA-MB-231, 24 h, read-out: Inhibition Cancer Cells IC50, MDA-MB-231 (Table III)",6 ± 0.54 µM
same,"Fold increase in efficacy (PBIT/PBISe), MDA-MB-231","[4]; ratio of IC50 PBIT/PBISe, MDA-MB-231",>16.7 fold
same,reduction of cellular proliferative capacity compared to PBS vehicle or PBIT treated cells,UACC 903 melanoma cells,~90%
same,cleaved caspase-3 and PARP,"[5]; UACC 903, 7-21 μM, 24 hours",increases
same,phosphorylation of downstream Akt3 substrate PRAS40,"[5]; UACC 903, 7-21 μM, 24 hours",inhibited
same,Akt phosphorylation,[5]; [8],inhibits
same,total Akt protein levels,[5]; [8],decreases
same,cyclin D1 levels,"[5]; melanoma cells, FIG. 4C",reduces
same,p27 as well as p21 levels,"[5]; three cell lines, FIG. 4C",increases
same,"blood parameters (SGOT, SGPT, alkaline phosphatase, blood urea, glucose and creatinine)",[6]; i.p. 0.315 μmoles,"did not detect significant liver, kidney or cardiac related toxicity"
same,histological examination of H&E stained vital organ sections,[6]; i.p. 0.315 μmoles,did not significantly change cell morphology or organ structure
same,body weight during treatment,[6]; i.p. 3 times per week,No significant difference
same,morphology of constituent cells of skin reconstructs,"[7]; 20 uM topical, H&E",no toxicity
same,difference in tumor size compared to vehicle PBS control and PBIT treated skins,"[7]; 15 and 20 μM, topical, area occupied by GFP, WM35 and UACC 903",80-90%
same,decrease in tumor volume versus vehicle acetone or PBIT treated mice,UACC 903 melanoma tumors,50%
